Experimental data published in US8048862B2, “Macrocyclic inhibitors of hepatitis C virus replication” (priority 2008, dated 2011).
Like-named read-outs stand apart in the source and are kept apart here.

Experiments:
[1] = biological target: NS3/NS4 complexes (Hepatitis C virus genotype 1a, UniProt P27958); test: NS3/NS4 inhibition activity (IC50); format: biochemical
Procedure, shortened: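 Buffer: 50 mM Tris-HCl (pH 7.5), 10 mM DTT, 25 μM NS4A peptide, 0.6 mM LDAO and 15% glycerol. Assays were run at 23 °C with preformed NS3/NS4 complex, and the compound concentration giving inhibition was derived as an IC50.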

[2] = tested on: hepatitis C replicon; test: hepatitis C replicon EC50; format: cell-based; details: Hepatitis C virus, hepatitis C replicon, read-out: EC50
Text: NS3-NS4 inhibition activity can be determined using known assay methods.

NS3/NS4 complexes, sequence (P27958 1027-1657): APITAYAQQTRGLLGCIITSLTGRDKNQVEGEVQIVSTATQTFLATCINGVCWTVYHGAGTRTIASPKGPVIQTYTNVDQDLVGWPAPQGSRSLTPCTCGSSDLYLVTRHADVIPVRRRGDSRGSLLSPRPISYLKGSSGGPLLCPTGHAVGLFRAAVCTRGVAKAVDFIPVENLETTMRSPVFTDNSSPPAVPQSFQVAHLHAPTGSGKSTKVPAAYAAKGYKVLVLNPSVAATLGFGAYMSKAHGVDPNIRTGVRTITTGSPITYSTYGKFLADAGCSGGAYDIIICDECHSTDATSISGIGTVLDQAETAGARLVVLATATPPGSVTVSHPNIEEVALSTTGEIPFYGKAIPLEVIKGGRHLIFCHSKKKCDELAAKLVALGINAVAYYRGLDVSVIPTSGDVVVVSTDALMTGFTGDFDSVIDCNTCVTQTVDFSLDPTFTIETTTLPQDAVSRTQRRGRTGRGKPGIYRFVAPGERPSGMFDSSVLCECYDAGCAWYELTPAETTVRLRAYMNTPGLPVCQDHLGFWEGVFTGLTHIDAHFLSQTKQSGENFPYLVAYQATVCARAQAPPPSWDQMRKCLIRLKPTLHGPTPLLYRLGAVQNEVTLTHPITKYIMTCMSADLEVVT
NS3/NS4 complexes, sequence (P27958 1658-1711): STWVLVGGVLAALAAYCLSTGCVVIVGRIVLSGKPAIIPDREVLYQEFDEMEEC

SMILES | IC50 ([1]; Table 2, read-out: IC50) [µM] | EC50 ([2]; Table 2) [µM] | IC50 ([1]; IC50, Table 3) [µM] | EC50 ([2]; Table 3) [µM] | IC50 ([1]; Table 3, read-out: IC50) [µM]
CC(C)n1c(O[C@@H]2C[C@H]3C(=O)N[C@]4(C(=O)NS(=O)(=O)C5(C)CC5)C[C@H]4/C=C\CCCCC[C@H](Nc4ccccc4)C(=O)N3C2)nc2ccc(F)cc21 [Compound 461] | < 0.01 | 0.01 to 0.075 |  |  | 
Cc1ccc2nc(O[C@@H]3C[C@H]4C(=O)N[C@]5(C(=O)NS(=O)(=O)C6(C)CC6)C[C@H]5/C=C\CCCCC[C@H](Nc5ccccc5)C(=O)N4C3)n(C(C)C)c2c1 [Compound 462] | < 0.01 | 0.01 to 0.075 |  |  | 
CC(C)n1c(O[C@@H]2C[C@H]3C(=O)N[C@]4(C(=O)NS(=O)(=O)C5(C)CC5)C[C@H]4CCCCCCC[C@H](Nc4cc(F)cc(C(F)(F)F)c4)C(=O)N3C2)nc2ccccc21 [Compound 465] | < 0.01 | 0.075 to 0.5 |  |  | 
CCn1c(O[C@@H]2C[C@H]3C(=O)N[C@]4(C(=O)NS(=O)(=O)C5(C)CC5)C[C@H]4CCCCCCC[C@H](Nc4cc(F)cc(C(F)(F)F)c4)C(=O)N3C2)nc2ccccc21 [Compound 466] | < 0.01 | 0.075 to 0.5 |  |  | 
CC(C)n1c(O[C@@H]2C[C@H]3C(=O)N[C@]4(C(=O)NS(=O)(=O)C5(C)CC5)C[C@H]4/C=C\CCCCC[C@H](Nc4ccccc4)C(=O)N3C2)nc2cccc(F)c21 [Compound 467] | < 0.01 | 0.01 to 0.075 |  |  | 
CC(C)n1c(O[C@@H]2C[C@H]3C(=O)N[C@]4(C(=O)NS(=O)(=O)C5(C)CC5)C[C@H]4/C=C\CCCCC[C@H](Nc4ccccc4)C(=O)N3C2)nc2cc(F)ccc21 [Compound 468] | < 0.01 | < 0.01 |  |  | 
CC(C)n1c(O[C@@H]2C[C@H]3C(=O)N[C@]4(C(=O)NS(=O)(=O)C5(C)CC5)C[C@H]4/C=C\CCCCC[C@H](Nc4ccccc4)C(=O)N3C2)nc2c(F)cccc21 [Compound 469] | < 0.01 | < 0.01 |  |  | 
Cc1ccc2c(c1)nc(O[C@@H]1C[C@H]3C(=O)N[C@]4(C(=O)NS(=O)(=O)C5(C)CC5)C[C@H]4/C=C\CCCCC[C@H](Nc4ccccc4)C(=O)N3C1)n2C(C)C [Compound 470] | < 0.01 | 0.01 to 0.075 |  |  | 
Cc1cccc2c1nc(O[C@@H]1C[C@H]3C(=O)N[C@]4(C(=O)NS(=O)(=O)C5(C)CC5)C[C@H]4/C=C\CCCCC[C@H](Nc4ccccc4)C(=O)N3C1)n2C(C)C [Compound 471] | < 0.01 | 0.01 to 0.075 |  |  | 
COc1ccc2c(O[C@@H]3C[C@H]4C(=O)N[C@]5(C(=O)NS(=O)(=O)C6(C)CC6)C[C@H]5/C=C\CCCCC[C@H](Nc5ccccc5C)C(=O)N4C3)cc(-c3nc(C(C)C)cs3)nc2c1C [Compound 472] | < 0.01 | 0.01 to 0.075 |  |  | 
COc1ccc2c(O[C@@H]3C[C@H]4C(=O)N[C@]5(C(=O)NS(=O)(=O)C6(C)CC6)C[C@H]5/C=C\CCCCC[C@H](Nc5ccc(F)c(F)c5)C(=O)N4C3)cc(-c3nc(C(C)C)cs3)nc2c1C [Compound 473] | < 0.01 | < 0.01 |  |  | 
CNC(=O)c1cccc(N[C@H]2CCCCC/C=C\[C@@H]3C[C@@]3(C(=O)NS(=O)(=O)C3(C)CC3)NC(=O)[C@@H]3C[C@@H](Oc4cc(-c5nc(C(C)C)cs5)nc5c(C)c(OC)ccc45)CN3C2=O)c1 [Compound 474] | < 0.01 | < 0.01 |  |  | 
COc1ccc2c(O[C@@H]3C[C@H]4C(=O)N[C@]5(C(=O)NS(=O)(=O)C6(C)CC6)C[C@H]5/C=C\CCCCC[C@H](Nc5cccc(NC(C)=O)c5)C(=O)N4C3)cc(-c3nc(C(C)C)cs3)nc2c1C [Compound 475] | < 0.01 | < 0.01 |  |  | 
COc1ccc2c(O[C@@H]3C[C@H]4C(=O)N[C@]5(C(=O)NS(=O)(=O)C6(C)CC6)C[C@H]5/C=C\CCCCC[C@H](Nc5cccc(C#N)c5)C(=O)N4C3)cc(-c3nc(C(C)C)cs3)nc2c1C [Compound 476] | < 0.01 | < 0.01 |  |  | 
COc1ccc2c(O[C@@H]3C[C@H]4C(=O)N[C@]5(C(=O)NS(=O)(=O)C6(C)CC6)C[C@H]5/C=C\CCCCC[C@H](Nc5cccc(C)c5)C(=O)N4C3)cc(-c3nc(C(C)C)cs3)nc2c1C [Compound 477] | < 0.01 | < 0.01 |  |  | 
COc1cccc(N[C@H]2CCCCC/C=C\[C@@H]3C[C@@]3(C(=O)NS(=O)(=O)C3(C)CC3)NC(=O)[C@@H]3C[C@@H](Oc4cc(-c5nc(C(C)C)cs5)nc5c(C)c(OC)ccc45)CN3C2=O)c1 [Compound 478] | < 0.01 | 0.075 to 0.5 |  |  | 
COc1ccc2c(O[C@@H]3C[C@H]4C(=O)N[C@]5(C(=O)NS(=O)(=O)C6(C)CC6)C[C@H]5/C=C\CCCCC[C@H](Nc5cccc(C(=O)N(C)C)c5)C(=O)N4C3)cc(-c3nc(C(C)C)cs3)nc2c1C [Compound 479] | < 0.01 | < 0.01 |  |  | 
COc1ccc2c(O[C@@H]3C[C@H]4C(=O)N[C@]5(C(=O)NS(=O)(=O)C6(C)CC6)C[C@H]5/C=C\CCCCC[C@H](Nc5cc(F)c(F)c(F)c5)C(=O)N4C3)cc(-c3nc(C(C)C)cs3)nc2c1C [Compound 480] | < 0.01 | 0.01 to 0.075 |  |  | 

SMILES | IC50 ([1]; Table 2, read-out: IC50) [µM] | EC50 ([2]; Table 2) [µM] | IC50 ([1]; IC50, Table 3) [µM] | EC50 ([2]; Table 3) [µM] | IC50 ([1]; Table 3, read-out: IC50) [µM]
COc1ccc2c(O[C@@H]3C[C@H]4C(=O)N[C@]5(C(=O)NS(=O)(=O)C6(C)CC6)C[C@H]5/C=C\CCCCC[C@H](Nc5ccc(C#N)cc5)C(=O)N4C3)cc(-c3nc(C(C)C)cs3)nc2c1C [Compound 481] | < 0.01 | < 0.01 |  |  | 
COc1ccc2c(O[C@@H]3C[C@H]4C(=O)N[C@]5(C(=O)NS(=O)(=O)C6(C)CC6)C[C@H]5/C=C\CCCCC[C@H](Nc5cc(C)cc(F)c5)C(=O)N4C3)cc(-c3nc(C(C)C)cs3)nc2c1C [Compound 482] | < 0.01 | < 0.01 |  |  | 
CC1(S(=O)(=O)NC(=O)[C@@]23C[C@H]2/C=C\CCCCC[C@H](Nc2ccccc2)C(=O)N2C[C@H](Oc4nc5ccccc5nc4-c4cccs4)C[C@H]2C(=O)N3)CC1 [Compound 486] | < 0.01 | 0.01 to 0.075 |  |  | 
COc1ccc2c(O[C@@H]3C[C@H]4C(=O)N[C@]5(C(=O)NS(=O)(=O)C6(C)CC6)C[C@H]5/C=C\CCCCC[C@H](Nc5ccccc5F)C(=O)N4C3)cc(-c3nc(C(C)C)cs3)nc2c1C [Compound 492] | < 0.01 | 0.01 to 0.075 |  |  | 
CC(C)(C)OC(=O)N[C@H]1CCCCC/C=C\[C@@H]2C[C@@]2(C(=O)NS(=O)(=O)C2(C)CC2)NC(=O)[C@@H]2C[C@@H](Oc3nc4ccccc4n3COCC[Si](C)(C)C)CN2C1=O [Compound 701] |  |  | < 0.01 | 0.01 to 0.1 | 
CC(C)(C)OC(=O)N[C@H]1CCCCC/C=C\[C@@H]2C[C@@]2(C(=O)O)NC(=O)[C@@H]2C[C@@H](Oc3nc4ccccc4s3)CN2C1=O [Compound 1001] |  |  |  | > 0.1 | 0.01 to 0.1
CCn1c(O[C@@H]2C[C@H]3C(=O)N[C@]4(C(=O)NS(=O)(=O)C5CC5)C[C@H]4/C=C\CCCCC[C@H](NC(=O)OC(C)(C)C)C(=O)N3C2)nc2ccccc21 [Compound 1007] |  |  |  | < 0.01 | < 0.01
CC(C)(C)OC(=O)N[C@H]1CCCCC/C=C\[C@@H]2C[C@@]2(C(=O)NS(=O)(=O)C2(C)CC2)NC(=O)[C@@H]2C[C@@H](Oc3nc4ccccc4s3)CN2C1=O [Compound 1008] |  |  |  | < 0.01 | < 0.01
CC(C)(C)OC(=O)N[C@H]1CCCCC/C=C\[C@@H]2C[C@@]2(C(=O)NS(=O)(=O)C2CC2)NC(=O)[C@@H]2C[C@@H](Oc3nc4ccccc4s3)CN2C1=O [Compound 1009] |  |  |  | < 0.01 | < 0.01
CC(C)(C)OC(=O)N[C@H]1CCCCC/C=C\[C@@H]2C[C@@]2(C(=O)NS(=O)(=O)C2CC2)NC(=O)[C@@H]2C[C@@H](Oc3nc4ccc(F)cc4s3)CN2C1=O [Compound 1010] |  |  |  | 0.01 to 0.1 | < 0.01
CC(C)(C)OC(=O)N[C@H]1CCCCC/C=C\[C@@H]2C[C@@]2(C(=O)NS(=O)(=O)C2(C)CC2)NC(=O)[C@@H]2C[C@@H](Oc3nc4ccc(F)cc4s3)CN2C1=O [Compound 1011] |  |  |  | 0.01 to 0.1 | < 0.01
CC(C)(C)OC(=O)N[C@H]1CCCCC/C=C\[C@@H]2C[C@@]2(C(=O)NS(=O)(=O)C2CC2)NC(=O)[C@@H]2C[C@@H](Oc3nc4ccc(Br)cc4s3)CN2C1=O [Compound 1012] |  |  |  | < 0.01 | < 0.01
CC(C)(C)OC(=O)N[C@H]1CCCCC/C=C\[C@@H]2C[C@@]2(C(=O)NS(=O)(=O)C2(C)CC2)NC(=O)[C@@H]2C[C@@H](Oc3nc4ccc(Br)cc4s3)CN2C1=O [Compound 1013] |  |  |  | < 0.01 | < 0.01
Cc1ccc2nc(O[C@@H]3C[C@H]4C(=O)N[C@]5(C(=O)NS(=O)(=O)C6(C)CC6)C[C@H]5/C=C\CCCCC[C@H](NC(=O)OC(C)(C)C)C(=O)N4C3)sc2c1 [Compound 1014] |  |  |  | < 0.01 | < 0.01
Cc1ccc2nc(O[C@@H]3C[C@H]4C(=O)N[C@]5(C(=O)NS(=O)(=O)C6CC6)C[C@H]5/C=C\CCCCC[C@H](NC(=O)OC(C)(C)C)C(=O)N4C3)sc2c1 [Compound 1015] |  |  |  | < 0.01 | < 0.01
COc1ccc2nc(O[C@@H]3C[C@H]4C(=O)N[C@]5(C(=O)NS(=O)(=O)C6(C)CC6)C[C@H]5/C=C\CCCCC[C@H](NC(=O)OC(C)(C)C)C(=O)N4C3)sc2c1 [Compound 1016] |  |  |  | 0.01 to 0.1 | < 0.01
CC(C)(C)OC(=O)N[C@H]1CCCCC/C=C\[C@@H]2C[C@@]2(C(=O)NS(=O)(=O)C2CC2)NC(=O)[C@@H]2C[C@@H](Oc3nc4ccc(Cl)cc4s3)CN2C1=O [Compound 1018] |  |  |  | 0.01 to 0.1 | < 0.01
